From PMC11117333, “Design and synthesis of new dihydropyrimidine/sulphonamide hybrids as promising anti-inflammatory agents via dual mPGES-1/5-LOX inhibition” (Frontiers in Chemistry, 2024) come the findings set out here.

The term IC50 denotes the point on the concentration scale where inhibition reaches its midpoint. One may read the melting point as the temperature, or range, at which the solid turns liquid.

Molecules are shown by their SMILES. Marks after values point to notes of the source that are not given here.

One series relates to rat intestinal mucosa. As to the kind of experiment: Gastric ulcerogenic activity (macroscopic inspection). Particulars: oral 10 mg/kg. The arrangement: Score: Severity lesions: scale not given here. It counts as in vivo. Here is the method:
The two most common side effects of long-term NSAID use are gastrointestinal erosion and ulcers ([Hendawy et al., 2021]). As a result, we were curious about the ulcerogenic potential of the most efficacious drugs, 3e and 3j, when given orally. The ulcerogenic effects of 3e and 3j were assessed by macroscopic inspection of rat intestinal mucosa after oral administration of 10 mg/kg of 3e, 3j, indomethacin, and celecoxib ([Manivannan and Chaturvedi, 2011]).
The ulcerogenic effects of compounds 3e and 3j were evaluated by macroscopic examination of rat intestinal mucosa after oral administration of 10 mg/kg of these compounds and indomethacin and celecoxib ([Manivannan and Chaturvedi, 2011]). See Appendix A for details.

The subject of series [1] is carrageen-induced paw edema. As to the kind of experiment: Carrageenan-induced paw edema bioassay. Conditions: for % Of edema inhibition 1 h: 1 h after carrageenan injection; for % Of edema inhibition 3 h: 3 h after carrageenan injection; for % Of edema inhibition 5 h: 5 h after carrageenan injection. The arrangement: concentration or dose not given beside the values. In kind it is in vivo, rat. Here is the method:
The compounds’ efficacy was measured as edema inhibition percentage (EI %) after 1, 3, and 5 h of carrageenan injection vs. the conventional medicine Celecoxib.
Compounds 3c, 3e, 3h, and 3j were chosen for in vivo anti-inflammatory testing using the carrageen-induced paw edema bioassay method described by [Winter et al, (1962)]. The compounds’ efficacy was measured as edema inhibition percentage (EI%) after 1, 3, and 5 h of carrageenan injection vs. the conventional medicine Celecoxib.
In general terms: In the carrageenan paw model, swelling and tenderness develop within hours.

The next series has as its target T1, soya bean 5-LOX (Glycine max, UniProt P08170).
T1 construct: purchased Cayman Chemical, Ann Arbor, Michigan, USA 760700
T1 sequence (P08170 1-839): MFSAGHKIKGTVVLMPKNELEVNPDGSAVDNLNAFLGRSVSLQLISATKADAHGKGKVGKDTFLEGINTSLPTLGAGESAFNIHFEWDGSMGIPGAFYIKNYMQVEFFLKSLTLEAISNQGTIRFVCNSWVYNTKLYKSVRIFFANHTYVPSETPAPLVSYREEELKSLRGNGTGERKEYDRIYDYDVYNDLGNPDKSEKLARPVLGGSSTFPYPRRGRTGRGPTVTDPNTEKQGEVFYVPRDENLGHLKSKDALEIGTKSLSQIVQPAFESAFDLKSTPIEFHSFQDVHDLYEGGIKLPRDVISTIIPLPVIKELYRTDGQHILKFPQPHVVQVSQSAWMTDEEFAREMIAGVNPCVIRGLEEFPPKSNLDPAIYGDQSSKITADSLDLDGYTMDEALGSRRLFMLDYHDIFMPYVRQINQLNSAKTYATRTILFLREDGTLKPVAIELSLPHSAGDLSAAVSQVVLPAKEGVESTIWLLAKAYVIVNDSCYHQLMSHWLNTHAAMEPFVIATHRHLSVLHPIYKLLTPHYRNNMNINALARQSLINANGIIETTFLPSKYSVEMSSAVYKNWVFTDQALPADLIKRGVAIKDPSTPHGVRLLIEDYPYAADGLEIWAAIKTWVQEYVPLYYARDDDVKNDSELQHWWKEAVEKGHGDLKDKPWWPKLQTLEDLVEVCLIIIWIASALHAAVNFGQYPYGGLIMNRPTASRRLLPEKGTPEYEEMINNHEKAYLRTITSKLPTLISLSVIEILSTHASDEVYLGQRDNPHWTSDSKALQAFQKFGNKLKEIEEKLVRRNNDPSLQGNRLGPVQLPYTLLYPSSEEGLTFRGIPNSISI
Kind of series: 5-LOX enzyme assay (EIA kit, Cayman 760700). In kind it is biochemical. The text has this: The capacity of compounds 3a–j to inhibit the enzyme 5-lipoxygenase (5-LOX) has been investigated ([Youssif et al., 2019]).
The study used an enzyme immune assay (EIA) kit (catalogue no. 760700, Cayman Chemical, Ann Arbor, Michigan, USA) to evaluate the inhibitory activity of target analogues against soya bean 5-LOX, ensuring compliance with manufacturer’s instructions and protocols, and calculating IC50 values ([Roschek et al., 2009]).

For another series, the target named is T2, mPGES-1 (Homo sapiens, UniProt O14684).
T2 construct: microsomal fractions from IL-1β-stimulated A549 cells served as the enzyme source; endogenous in cells; host or cells: A549 cells (IL-1β-stimulated), microsomal fraction
T2 sequence (O14684 1-152): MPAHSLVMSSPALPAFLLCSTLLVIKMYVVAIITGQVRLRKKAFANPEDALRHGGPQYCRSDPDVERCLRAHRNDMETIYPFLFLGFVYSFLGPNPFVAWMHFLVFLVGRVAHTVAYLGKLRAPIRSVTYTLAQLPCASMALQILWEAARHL
Kind of series: Cell-free mPGES-1 enzyme assay (microsomal fractions from IL-1β-stimulated A549 cells). In kind it is biochemical. Particulars: for remaining activity at 10 µM: 10 µM compound, read-out: mPGES-1 RA (%) 10 µM (residual activity percentage); for remaining activity at 10 µM / IC50: cell-free, A549 microsomes; for fold less potent than 3j (mPGES-1): from IC50 values. On the procedure:
A cell-free assay was conducted to evaluate the capacity of compounds […] to act as inhibitors of mPGES-1. In this assay, microsomal fractions from IL-1β-stimulated A549 cells served as the enzyme source ([Gürses et al., 2021]). During the initial screening phase, compounds 3a–j were examined for their effects on mPGES-1 at a concentration of 10 µM.
Microsomal measures of A549 cells expressing mPGES-1 were made in accordance with prior research findings ([Koeberle et al., 2008]). These cells were cultivated in Dulbecco’s Modified Eagle Medium and resuspended in a homogenization buffer. Subsequently, the microsomes were subjected to pre-incubation with either assessed compounds or a carrier solution containing 0.1 percent DMSO. The enzymatic process was halted by introducing FeCl3, citric acid, and 11-PGE2 as an internal standard. The quantities of Prostaglandin E2 (PGE2) were measured via RP-HPLC methodologies.

The test system of the next series is PGE2. Kind of series: Rat serum PGE2 after carrageenan (ELISA). In kind it is in vivo. Particulars: 4 hours after subcutaneous carrageenan; for PGE2 serum concentration: mean ± SE. From the text: Inhibiting PGE2 is a crucial strategy in anti-inflammatory therapy, playing a pivotal role in managing inflammation and its associated conditions.
(§1) In this study, specializing ELISA kits were used to determine the concentration of inflammatory cytokines PGE2, IL-6, and TNF-α. The study’s findings were examined in accordance with the instructions provided by the manufacturer, and measurements were taken based on the optical density at 450 nm.
In general terms: An ELISA detects its analyte on a solid surface through an enzyme-linked reagent.

In another series the test system is IL-6. Kind of series: Rat serum IL-6 after carrageenan (ELISA). It counts as in vivo.
Text: as §1

Another series has as its system TNF-α. Kind of series: Rat serum TNF-α after carrageenan (ELISA). It counts as in vivo. Conditions: for TNFα serum concentration: mean ± SE.
Text: as §1

`Cc1ccc(-c2cc(C(F)(F)F)nn2-c2ccc(S(N)(=O)=O)cc2)cc1` [Celecoxib, reference compound]: in the series with rat intestinal mucosa, the “Score: No. of gastric ulcers” value was 2.5 ± 0.10 and the “Score: Severity lesions” value was determined as 5.80 ± 0.20. In series [1], the “% Of edema inhibition 1 h” value came to 40%, the “% Of edema inhibition 3 h” value is on record as 54% and the “% Of edema inhibition 5 h” value is on record as 22%.
Regarding `CC1=C(C(=O)Nc2ccc(S(N)(=O)=O)cc2)C(c2ccccc2)NC(=S)N1` (centres unmarked) [Compound 3a, 6-methyl-4-phenyl-N-[4-sulfamoylphenyl]-2-thioxo-1,2,3,4-tetrahydropyrimidine-5-carboxamide], the melting point is 266 to 269 °C. Besides, inhibition against soya bean 5-LOX was half-maximal at 5.85 µM (IC50). On mPGES-1, the remaining activity at 10 µM came to 89.2% and the midpoint of inhibition, the IC50, lay at 4.28 µM.
In the same order, the values of `CC1=C(C(=O)Nc2ccc(S(N)(=O)=O)cc2)C(c2cccc(O)c2)NC(=S)N1` (centres unmarked) [Compound 3b, 4-[3-hydroxyphenyl]-6-methyl-N-[4-sulfamoylphenyl]-2-thioxo-1,2,3,4-tetrahydropyrimidine-5-carboxamide] are 288 to 291 °C, 4.82 µM, 69.2% and 3.89 µM.
The compound `COc1ccc(C2NC(=S)NC(C)=C2C(=O)Nc2ccc(S(N)(=O)=O)cc2)cc1O` (centres unmarked) [Compound 3c, 4-[3-hydroxy-4-methoxyphenyl]-6-methyl-N-[4-sulfamoylphenyl]-2-thioxo-1,2,3,4-tetrahydropyrimidine-5-carboxamide] had a melting point of 296 °C. The compound also registered a 50% inhibitory concentration (IC50) at soya bean 5-LOX of 2.87 µM. On mPGES-1, the remaining activity at 10 µM turned out to be 33.6%, the IC50 turned out to be 1.53 µM and the “fold less potent than 3j (mPGES-1)” value was 1.5 fold. Also, in series [1], the “% Of edema inhibition 1 h” value turned out to be 29%, the “% Of edema inhibition 3 h” value came out at 46% and the “% Of edema inhibition 5 h” value is reported as 55%.
Take `COc1cc(C2NC(=S)NC(C)=C2C(=O)Nc2ccc(S(N)(=O)=O)cc2)cc(OC)c1OC` (centres unmarked) [Compound 3d, 6-Methyl-N-[4-sulfamoylphenyl]-2-thioxo-4-[3,4,5-trimethoxyphenyl]-1,2,3,4-tetrahydropyrimidine-5-carboxamide]: the melting point fell in the range of 270 to 272 °C. At soya bean 5-LOX, this compound registered an IC50 of 3.65 µM. Also, at mPGES-1, the remaining activity at 10 µM stood at 46.8% and the IC50 worked out at 2.7 µM.
In turn, `CC1=C(C(=O)Nc2ccc(S(N)(=O)=O)cc2)C(c2ccccc2)NC(=O)N1` (centres unmarked) [Compound 3f, 6-methyl-2-oxo-4-phenyl-N-[4-sulfamoylphenyl]-1,2,3,4-tetrahydropyrimidine-5-carboxamide] yielded a melting point of 258 to 260 °C. Further, the IC50 at soya bean 5-LOX was 5.34 µM. Also, at mPGES-1, the remaining activity at 10 µM was determined as 91.4% and the IC50 amounted to 4.78 µM.
In turn, `CC1=C(C(=O)Nc2ccc(S(N)(=O)=O)cc2)C(c2cccc(O)c2)NC(=O)N1` (centres unmarked) [Compound 3g, 4-[3-hydroxyphenyl]-6-methyl-2-oxo-N-[4-sulfamoylphenyl]-1,2,3,4-tetrahydropyrimidine-5-carboxamide] gave a melting point of 270 to 272 °C. This compound also had an IC50 against soya bean 5-LOX of 4.45 µM. On mPGES-1, the remaining activity at 10 µM amounted to 64.7% and 3.45 µM corresponded to half-maximal inhibition (IC50).
With `COc1ccc(C2NC(=O)NC(C)=C2C(=O)Nc2ccc(S(N)(=O)=O)cc2)cc1O` (centres unmarked) [Compound 3h, 4-[3-hydroxy-4-methoxyphenyl]-6-methyl-2-oxo-N-[4-sulfamoylphenyl]-1,2,3,4-tetrahydropyrimidine-5-carboxamide], the melting point lay within 275 to 279 °C. For the same compound, in the series on PGE2, the PGE2 %inhibition came out at 69% and the PGE2 serum concentration is 95.00 ± 2.50^abc pg/mL. The IL-6 %inhibition in the series on IL-6 came to 63%. In addition, the IL-6 serum concentration in the series with IL-6 (mean ± SE) is 140.70 ± 4.20^ab pg/mL. For the same compound, the midpoint of inhibition at soya bean 5-LOX, the IC50, lay at 2.64 µM. On mPGES-1, the remaining activity at 10 µM was determined as 31.2%, half-maximal inhibition (IC50) was put at 1.32 µM and the “fold less potent than 3j (mPGES-1)” value came out at 1.5 fold. Moreover, in series [1], the “% Of edema inhibition 1 h” value was found to be 30%, the “% Of edema inhibition 3 h” value was 49% and the “% Of edema inhibition 5 h” value came to 58%. Besides, in the series on TNF-α, the TNFα %inhibition came out at 56% and the TNFα serum concentration is on record as 102.70 ± 2.90^ab pg/mL.
Consider `COc1cc(C2NC(=O)NC(C)=C2C(=O)Nc2ccc(S(N)(=O)=O)cc2)cc(OC)c1OC` (centres unmarked) [Compound 3i, 6-methyl-2-oxo-N-[4-sulfamoylphenyl]-4-[3,4,5-trimethoxyphenyl]-1,2,3,4-tetrahydropyrimidine-5-carboxamide], for which the melting point was 260 to 263 °C. Further, at soya bean 5-LOX, the midpoint of inhibition, the IC50, lay at 3.97 µM. Besides, at mPGES-1, the remaining activity at 10 µM was determined as 53.6% and 2.89 µM corresponded to half-maximal inhibition (IC50).
Consider `COc1ccc2c(c1)c(CC(=O)O)c(C)n2C(=O)c1ccc(Cl)cc1` [Indomethacin, reference compound], for which, in the series on rat intestinal mucosa, the “Score: No. of gastric ulcers” value is reported as 8.5 ± 0.40 and the “Score: Severity lesions” value came out at 12.50 ± 0.70.
`Cc1cnc(NC(=O)C2=C(O)c3ccccc3S(=O)(=O)N2C)s1` [Meloxicam, reference compound]: in the series on PGE2, the PGE2 %inhibition amounted to 73% and the PGE2 serum concentration is on record as 82.50 ± 2.58 ^b pg/mL. In addition, in the series with PGE2 (listed as meloxicam), the PGE2 %inhibition is given as 72.60%. Also, in the series with IL-6, the IL-6 %inhibition is 70%. Besides, in the series on TNF-α, the TNFα %inhibition is 62% and the TNFα serum concentration is 88.50 ± 2.40^ab pg/mL.
